Experimental data from PubChem BioAssay (NCI).
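Briefly, cells in 96-well plates were exposed to five compound concentrations for 48 h, and endpoints were estimated by linear interpolation. GI50 = concentration required for 50% inhibition of growth. TGI: concentration producing complete growth inhibition.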

Assays:
Assay in all cases: DTP human tumour cell line panel, 48 h
A549 NSCLC = system: A549 NSCLC
ACHN renal = system: ACHN renal
CAKI-1 renal = system: CAKI-1 renal
COLO 205 colon = system: COLO 205 colon
DU-145 prostate = system: DU-145 prostate
HCC-2998 colon = system: HCC-2998 colon
HCT-15 colon = system: HCT-15 colon
MCF7 breast = system: MCF7 breast
MOLT-4 leukemia = system: MOLT-4 leukemia
NCI-H522 lung = system: NCI-H522 lung
PC-3 prostate = system: PC-3 prostate
RPMI-8226 leukemia = system: RPMI-8226 leukemia
SF-295 CNS = system: SF-295 CNS
SK-MEL-28 melanoma = system: SK-MEL-28 melanoma
SR leukemia = system: SR leukemia
U251 CNS = system: U251 CNS

Row | SMILES | TGI (A549 NSCLC) [µM] | TGI (ACHN renal) [µM] | TGI (CAKI-1 renal) [µM] | TGI (COLO 205 colon) [µM] | TGI (DU-145 prostate) [µM] | TGI (HCC-2998 colon) [µM] | TGI (HCT-15 colon) [µM] | TGI (MCF7 breast) [µM] | TGI (MOLT-4 leukemia) [µM] | TGI (NCI-H522 lung) [µM] | TGI (PC-3 prostate) [µM] | TGI (RPMI-8226 leukemia) [µM] | TGI (SF-295 CNS) [µM] | TGI (SK-MEL-28 melanoma) [µM] | TGI (SR leukemia) [µM] | TGI (U251 CNS) [µM] | GI50 (CAKI-1 renal) [µM] | GI50 (HCC-2998 colon) [µM] | GI50 (NCI-H522 lung) [µM] | GI50 (SR leukemia) [µM]
1 | Cc1nc(C)c(N2CCN(C#N)CC2)c(=O)[nH]1 | > 100 | > 100 | > 100 | > 100 | > 100 | > 100 | > 100 | > 100 | > 100 | > 100 | > 100 | > 100 | > 100 | > 100 | > 100 | > 100 | – | – | – | –
2 | CC1(C)O[C@@H]2[C@@H]3OC(=O)C[C@@H]3[C@@H](COCc3ccccc3)[C@@H]2O1 | > 100 | > 100 | > 100 | > 100 | > 100 | > 100 | > 100 | > 100 | > 100 | > 100 | > 100 | > 100 | > 100 | > 100 | > 100 | > 100 | – | – | – | –
3 | CCOP(=O)(OCC)/C(C#N)=C/c1c(C)[nH]c2ccccc12 | > 100 | > 100 | > 100 | > 100 | > 100 | > 100 | > 100 | > 100 | > 100 | > 100 | > 100 | > 100 | > 100 | > 100 | > 100 | > 100 | – | – | – | –
4 | COC(Cc1ccccc1)NC(C)=O (stereo unspecified) | > 100 | > 100 | > 100 | > 100 | > 100 | > 100 | > 100 | > 100 | > 100 | > 100 | > 100 | > 100 | > 100 | > 100 | > 100 | > 100 | – | – | – | –
5 | COC(=O)C1CCC(=O)N1C(c1ccc2c(c1)OCO2)c1ccc2c(c1)OCO2 (stereo unspecified) | > 100 | > 100 | > 100 | > 100 | > 100 | > 100 | > 100 | > 100 | > 100 | > 100 | > 100 | > 100 | > 100 | > 100 | > 100 | > 100 | – | – | – | –
6 | CCCCCC(/C=N/N)C(O)(C(F)(F)F)C(F)(F)F (stereo unspecified) | > 10 | > 10 | 6.02 | 3.4 | 6.09 | > 10 | 9.54 | > 10 | > 10 | > 10 | 6.82 | > 10 | 8.6 | 7.43 | > 10 | > 10 | – | – | – | –
7 | CC1(C)OC(=S)N(c2ccccc2)C12C=Cc1cc3ccccc3cc1O2 (stereo unspecified) | > 100 | > 100 | > 100 | > 100 | > 100 | > 100 | > 100 | > 100 | > 100 | – | > 100 | > 100 | > 100 | > 100 | > 100 | > 100 | – | – | – | –
8 | O=C1C[C@H]2[C@H](c3ccc(Br)cc3)[C@H]3C(=O)c4ccccc4NC(=O)[C@@H]3[C@@]2(O)c2ccccc2N1 | > 100 | 97.7 | 28.3 | 40.2 | > 100 | 30.3 | > 100 | 77.2 | 25 | 69.3 | > 100 | 62.4 | > 100 | > 100 | 90.8 | > 100 | – | – | – | –
9 | Cc1cccc(NC(=S)N/N=C(/c2ccccc2)c2ccccn2)c1 | 14.3 | 11.8 | 12.7 | 12.8 | 9.34 | 19.7 | 16.5 | 0.663 | > 6.59 | 14.6 | 18.3 | > 7.74 | 10.7 | 40.5 | 7.13 | 12.5 | – | – | – | –
10 | COC(=O)c1scc(N)c1-n1ccc(=O)[nH]c1=O | > 100 | > 100 | > 100 | > 100 | > 100 | > 100 | > 100 | > 100 | > 100 | > 100 | > 100 | > 100 | – | > 100 | > 100 | > 100 | – | – | – | –
11 | O=C(/C(=C/c1cccs1)c1ccccc1)c1ccccc1 | > 100 | > 100 | > 100 | > 100 | > 100 | > 100 | > 100 | > 100 | > 100 | > 100 | > 100 | > 100 | > 100 | > 100 | > 100 | > 100 | – | – | – | –
12 | CCCCCCCCCCCCP(=O)(O)OCC(N)C(=O)O (stereo unspecified) | > 100 | > 100 | > 100 | > 100 | > 100 | > 100 | 41.3 | > 100 | 61.7 | > 100 | 36.9 | 91.9 | 41.4 | > 100 | > 100 | 24.8 | – | – | – | –
13 | O=C1O[C@H]2[C@@H]3OC(=O)c4cc(O)c(O)c(O)c4-c4c(cc(O)c(O)c4O)C(=O)OC[C@H]2O[C@@H](OC(=O)c2cc(O)c(O)c(O)c2)[C@@H]3OC(=O)c2cc(O)c(O)c3c2[C@@H]2C1=CC(=O)C(O)(O)C2(O)O3 (stereo partly specified) | > 100 | > 100 | 27.5 | > 100 | > 100 | > 100 | > 100 | 50.6 | 92 | 82.9 | > 100 | > 100 | > 100 | > 100 | > 100 | 33.5 | – | – | – | –
14 | COc1cc(/C=C(\C#N)c2ccccn2)cc(Br)c1O | > 100 | > 100 | > 100 | > 100 | > 100 | > 100 | > 100 | > 100 | > 100 | > 100 | > 100 | > 100 | 83.2 | > 100 | > 100 | > 100 | – | – | – | –
15 | CP(C)(=S)P(C)(C)=S | > 100 | > 100 | > 100 | > 100 | > 100 | > 100 | > 100 | > 100 | > 100 | > 100 | > 100 | > 100 | > 100 | > 100 | > 100 | > 100 | – | – | – | –
16 | CN(C)/C=N/S(=O)(=O)c1nn2c(C=O)c(-c3ccc(-c4ccc([N+](=O)[O-])cc4)o3)nc2s1 | > 32.8 | 8.99 | 4.06 | – | 26.6 | 14.7 | 12.5 | > 32.6 | 14.3 | – | 14.3 | 13.5 | > 46.5 | 6.22 | 5.4 | > 30.2 | – | – | – | –
17 | O=C(O)C(F)(OC(F)(F)C(F)(OC(F)(F)C(F)(F)C(F)(F)F)C(F)(F)F)C(F)(F)F (stereo unspecified) | > 100 | > 100 | > 100 | > 100 | > 100 | > 100 | > 100 | > 100 | > 100 | > 100 | > 100 | > 100 | > 100 | > 100 | > 100 | > 100 | – | – | – | –
18 | OCSc1nn(CO)c(=S)s1 | > 100 | 68.1 | > 100 | 67.8 | 57.6 | 43.3 | 37.8 | 35.9 | 51.6 | 35.3 | 59.6 | 70.6 | 71.9 | 49.9 | 11.9 | 56.8 | – | – | – | –
19 | CC1Cc2cc(O)ccc2C2[C@@H]1C1CC[C@H](O)[C@@]1(C)C[C@@H]2O[N+](=O)[O-] (stereo partly specified) | 79.7 | > 100 | 73.6 | 50.6 | 76.3 | 22 | > 78.7 | 25.3 | > 100 | 61.3 | > 100 | 50.2 | 39.2 | 81.8 | > 56.8 | 23 | – | – | – | –
20 | COC1(C)C=NCC(C)(C)NC(=O)C(C)(OC)C=NCC(C)(C)NC1=O (stereo unspecified) | > 10 | > 10 | > 10 | > 10 | > 10 | > 10 | > 10 | > 10 | > 10 | > 10 | > 10 | > 10 | > 10 | > 10 | > 10 | > 10 | – | – | – | –
21 | O=C1OC(c2ccccc2)N/C1=C\c1ccc2c(c1)OCO2 (stereo unspecified) | > 100 | > 100 | > 100 | > 100 | > 100 | > 100 | > 100 | > 100 | > 100 | > 100 | > 100 | 59.9 | > 100 | > 100 | 63.9 | > 100 | – | – | – | –
22 | O=C1NN(c2ccccc2)C(=O)C2C3c4ccccc4C(c4ccccc43)C12 (stereo unspecified) | > 100 | > 100 | > 100 | > 100 | > 100 | > 100 | > 100 | > 100 | – | > 100 | > 100 | > 100 | > 100 | > 100 | > 100 | > 100 | – | – | – | –
23 | CC1(C)CC[C@]2(C(=O)O)CC[C@]3(C)C(=CC[C@@H]4[C@@]5(C)CC[C@H](OC6OC(CO)C(O)C(O)C6OC6OC(CO)C(O)C(O)C6O)C(C)(C)[C@@H]5CC[C@]43C)[C@@H]2C1 (stereo partly specified) | 33.7 | 32.7 | 35.4 | 28.7 | 31.4 | 36.2 | 35.3 | 36.7 | 48.3 | 38 | 31.2 | 62.3 | 36 | 28.9 | 68 | 16.4 | – | – | – | –
24 | CC[C@]12C=CCN3CCC4(c5cc([C@@]6(C(=O)OC)CC7CN(CCc8c6[nH]c6ccccc86)C[C@@H]6CCC[C@H]76)c(OC)cc5N(C)C4[C@](O)(C(=O)OC)C1OC(C)=O)C32 (stereo partly specified) | > 10 | > 8.37 | > 10 | 0.375 | 0.0749 | > 6.75 | > 10 | > 10 | 6.02 | 0.113 | > 10 | > 7.96 | > 3.23 | > 10 | 0.788 | > 5.19 | – | – | – | –
25 | Cn1cnc([N+](=O)[O-])c1Sc1nc(N)nc2c1ncn2Cc1ccccc1 | 84.8 | 31.3 | 31.1 | 32.1 | > 100 | 29.4 | 45.8 | > 100 | – | 24.1 | 36.3 | 72.5 | > 100 | 42.5 | > 100 | 60.1 | – | – | – | –
26 | O=C(O)c1cc(Sc2ccc([N+](=O)[O-])c(C(=O)O)c2)ccc1[N+](=O)[O-] | > 100 | > 100 | > 100 | > 100 | > 100 | > 100 | > 100 | > 100 | > 100 | > 100 | > 100 | > 100 | > 100 | > 100 | > 100 | > 100 | > 100 | > 100 | > 100 | > 100
27 | CC(=O)OCc1cn(S(=O)(=O)c2ccc(C)cc2)cn1 | > 100 | > 100 | > 100 | > 100 | > 100 | > 100 | > 100 | > 100 | > 100 | > 100 | > 100 | > 100 | > 100 | > 100 | > 100 | > 100 | – | – | – | –
28 | C=C(C(=O)O)[C@@H]1C[C@@H]2O[C@H]1CC(C)=CCC/C(C)=C/CC[C@@]2(C)O | > 100 | > 100 | > 100 | > 100 | > 100 | > 100 | > 100 | > 100 | > 100 | > 100 | > 100 | > 100 | > 100 | > 100 | > 100 | > 100 | – | – | – | –
